PMC12363342, “Investigating the N-terminal linker histone H1 subtypes as substrates for JmjC lysine demethylases” (RSC Chemical Biology, 2025)
Square brackets hold non-standard residues; d marks the D form. Ends that are not written are not given here. Lys(Me3) = C[N+](C)(C)CCCC[C@H](N)C(=O)O; Lys(Me2) = CN(C)CCCC[C@H](N)C(=O)O

Tests used:
KDM3B = experiment: LC-MS demethylation activity assay, KDM3B; type: biochemical, human; details: 2 μM KDM, 10 μM H1/H3 peptide, 10 μM FAS, 100 μM LAA, 20 μM 2OG, 50 mM HEPES pH 7.5, 2 h, room temperature; for KDM3B demethylation activity, M: M (mono-) initial methylation state; for KDM3B demethylation activity, D: D (di-) initial methylation state
Description: (§1) The substrate specificity of JmjC KDMs for H1 was examined using liquid chromatography coupled to mass spectrometry (LC-MS) assays. The H1 peptides (10 μM) were incubated with the recombinant KDM (2 μM) in HEPES buffer at pH 7.5 at room temperature for 2 h, in the presence of ferrous(II) ammonium sulfate (FAS, 10 μM), sodium ascorbate (LAA, 100 μM) and 2OG (20 μM), and then quenched with formic acid. N^ε-Methylated H3K9 and H3K36 peptides were used as positive controls (Fig. 3–5 and Fig. S2–S6).[26]
(§2) The catalytic domains of the JmjC KDMs used were recombinantly produced as reported in either Escherichia coli (KDM4AM1-L359,[38] KDM4DM1-L359,[39] KDM4EM1-R336,[30] KDM6BD1141–E1590[40] and KDM3CL2157-L2500) or Sf9 cells (KDM3AT515–S1317, KDM3B882–1761, and KDM5DM1-D775) as N-terminally His6-tagged proteins. […] To produce proteins, DNA sequences encoding for KDM3A, KDM3B and KDM5D were inserted into the pFB-LIC vector, containing a TEV-protease cleavable N-terminal 6x-histidine tag via ligation independent cloning (LIC). The resultant plasmids were transformed into baculovirus and Sf9 cells ([…]) which were infected with the virus stock. The cells were grown at 27 °C and 90 rpm for 70 h. Cells were then harvested and suspended in 100 mL of lysis buffer (50 mM HEPES-NaOH, pH 7.4, 500 mM NaCl, 20 mM imidazole, 0.5 mM Tris (2-carboxyethyl)phosphine (TCEP), 5% (v/v) glycerol). […] The supernatant was loaded onto a Ni-NTA gravity column, washed with 10 column volume of lysis buffer and eluted using the elution buffer (50 mM HEPES-NaOH, pH 7.4, 500 mM NaCl, 300 mM imidazole, 0.5 mM TCEP, 5% (v/v) glycerol). The eluted protein was further purified using S200 gel filtration column chromatography (50 mM HEPES-NaOH, pH 7.4, 150 mM NaCl, 0.5 mM TCEP and 5% glycerol). Protein purity was analysed by SDS-PAGE and further confirmed by mass spectrometry. Selected fractions were pooled, concentrated and stored at −80 °C.
(§3) All reagents were purchased from Sigma Aldrich and were of the highest grade available. Ferrous(II) ammonium sulfate (FAS) solutions were prepared freshly by dissolving FAS to 400 mM in 20 mM HCl with subsequent dilution to 1 mM using deionized water. Fresh 2OG (10 mM) and LAA (50 mM) solutions were prepared by dissolving the solids in deionised water. All enzyme reactions were performed in 384-well plates (Greiner Bio-One) with a final reaction volume of 50 μL. Substrate mixtures contained 50 mM HEPES pH 7.5, LAA (100 μM), FAS (10 μM), 2OG (20 μM) and an H1 isoform peptide (10 μM). Reactions were initiated by the addition of enzyme to a final concentration of 2.0 μM. After 2 h, the reactions were stopped by the addition of 5 μL of 10% (v/v) LC-MS grade formic acid (Fisher Scientific) to a final concentration of 1% (v/v). Product analyses were performed by liquid chromatography-mass spectrometry (LC-MS) using an Agilent 1290 infinity II LC system equipped with an Agilent 1290 multisampler and an Agilent 1290 high speed pump and connected to an Agilent 6550 accurate mass iFunnel quadrupole time of flight (Q-TOF) mass spectrometer. 1 μL of the reaction mixture was injected onto a 1.8 μm × 2.1 × 50 mm ZORBAX RRHD Eclipse Plus C18 column (Agilent). Solvent A consisted of HPLC grade water containing 0.1% (v/v) formic acid and solvent B consisted of MeCN containing 0.1% (v/v) formic acid. Peptides were separated using a stepwise gradient (0 min – 95% solvent A, 1.0 min – 80% solvent A, 3.0 min – 45% solvent A, 4.0 min – 45% solvent A, 5.0 min – 0% solvent A, 6.0 min – 0% solvent A, 7.0 min – 95% solvent A). This was followed by a 3 min post-run with 95% solvent A to re-equilibrate the column. All flow rates were 0.2 mL min^−1. A blank injection of HPLC grade water was carried out between each sample injection.

KDM3C = experiment: LC-MS demethylation activity assay, KDM3C; type: biochemical, human; details: 2 μM KDM, 10 μM H1/H3 peptide, 10 μM FAS, 100 μM LAA, 20 μM 2OG, 50 mM HEPES pH 7.5, 2 h, room temperature; for KDM3C demethylation activity, M: M (mono-) initial methylation state; for KDM3C demethylation activity, D: D (di-) initial methylation state
Description: as §1, §2, §3

KDM5D = experiment: LC-MS demethylation activity assay, KDM5D; type: biochemical, human; details: 2 μM KDM, 10 μM H1/H3 peptide, 10 μM FAS, 100 μM LAA, 20 μM 2OG, 50 mM HEPES pH 7.5, 2 h, room temperature; for KDM5D demethylation activity, M: M (mono-) initial methylation state; for KDM5D demethylation activity, D: D (di-) initial methylation state
Description: as §1, §2, §3

KDM3A = experiment: LC-MS demethylation activity assay, KDM3A; type: biochemical, human; details: 2 μM KDM, 10 μM H1/H3 peptide, 10 μM FAS, 100 μM LAA, 20 μM 2OG, 50 mM HEPES pH 7.5, 2 h, room temperature; for KDM3A demethylation activity, M: M (mono-) initial methylation state; for KDM3A demethylation activity, D: D (di-) initial methylation state
Description: as §1, §2, §3

KDM4A = experiment: LC-MS demethylation activity assay, KDM4A; type: biochemical, human; details: 10 μM FAS, 100 μM LAA, 20 μM 2OG, room temperature; for KDM4A demethylation activity, M: M (mono-) initial methylation state; for KDM4A demethylation activity, D: D (di-) initial methylation state; for substrate conversion (demethylation) by KDM4A: 2 μM KDM4A, 10 μM peptide, HEPES pH 7.5, 2 h
Description: as §1, §2, §3

KDM4E = target: T1, KDM4E (Homo sapiens, UniProt B2RXH2); experiment: LC-MS demethylation activity assay, KDM4E; type: biochemical; details: 10 μM FAS, 100 μM LAA, 20 μM 2OG, room temperature; for KDM4E demethylation activity, M: M (mono-) initial methylation state; for KDM4E demethylation activity, D: D (di-) initial methylation state; for substrate conversion (demethylation) by KDM4E: 2 μM KDM4E, 10 μM peptide, HEPES pH 7.5, 2 h
T1 construct: KDM4DM1-L359,[39]; KDM4EM1-R336,[30]; His6 (N); made in house; host or cells: Escherichia coli
T1 sequence (B2RXH2 1-336): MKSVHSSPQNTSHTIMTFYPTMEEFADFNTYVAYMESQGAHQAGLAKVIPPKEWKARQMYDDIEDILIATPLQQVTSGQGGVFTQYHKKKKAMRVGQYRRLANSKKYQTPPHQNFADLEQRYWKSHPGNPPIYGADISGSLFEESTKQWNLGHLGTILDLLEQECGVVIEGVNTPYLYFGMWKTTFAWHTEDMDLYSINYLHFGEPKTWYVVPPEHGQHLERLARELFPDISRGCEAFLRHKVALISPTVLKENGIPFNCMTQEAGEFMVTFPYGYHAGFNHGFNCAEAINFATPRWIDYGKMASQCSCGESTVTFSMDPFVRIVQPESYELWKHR
Description: as §1, §2, §3

KDM6B = experiment: LC-MS demethylation activity assay, KDM6B; type: biochemical, human; details: 2 μM KDM, 10 μM H1/H3 peptide, 10 μM FAS, 100 μM LAA, 20 μM 2OG, 50 mM HEPES pH 7.5, 2 h, room temperature; for KDM6B demethylation activity, M: M (mono-) initial methylation state; for KDM6B demethylation activity, D: D (di-) initial methylation state
Description: as §1, §2, §3

KDM4D = target: T2, KDM4D (Homo sapiens, UniProt Q6B0I6); experiment: LC-MS demethylation activity assay, KDM4D; type: biochemical; details: room temperature; for KDM4D demethylation activity, M: M (mono-) initial methylation state; for KDM4D demethylation activity, D: D (di-) initial methylation state
T2 construct: KDM4AM1-L359,[38]; KDM4DM1-L359,[39]; KDM4EM1-R336,[30]; His6 (N); made in house; host or cells: Escherichia coli
T2 sequence (Q6B0I6 1-359): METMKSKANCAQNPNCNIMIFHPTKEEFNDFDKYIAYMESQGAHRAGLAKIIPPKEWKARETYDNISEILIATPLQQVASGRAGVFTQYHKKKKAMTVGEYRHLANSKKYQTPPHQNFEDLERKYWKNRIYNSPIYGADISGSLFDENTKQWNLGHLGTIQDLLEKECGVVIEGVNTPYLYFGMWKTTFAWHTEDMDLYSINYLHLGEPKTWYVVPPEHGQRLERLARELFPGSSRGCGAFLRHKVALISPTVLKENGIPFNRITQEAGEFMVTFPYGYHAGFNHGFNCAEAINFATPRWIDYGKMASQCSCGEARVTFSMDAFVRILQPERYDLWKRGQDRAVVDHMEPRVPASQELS
Description: as §1, §2, §3

[1] = 2 μM KDM, 10 μM H1/H3 peptide, 50 mM HEPES pH 7.5, 2 h
[2] = 2 μM KDM, 10 μM H1/H3 peptide, 10 μM FAS, 100 μM LAA, 20 μM 2OG, 50 mM HEPES pH 7.5, 2 h
[3] = T (tri-) initial methylation state
[4] = 2 μM KDM, 10 μM H1/H3 peptide, 50 mM HEPES pH 7.5, 2 h, T (tri-) initial methylation state
[5] = 2 μM KDM4D, 10 μM peptide, standard conditions, 2 h

Substance	KDM3B demethylation activity, M (KDM3B)	KDM3C demethylation activity, M (KDM3C)	KDM5D demethylation activity, M (KDM5D)	KDM3A demethylation activity, M (KDM3A)	KDM4A demethylation activity, M (KDM4A; [1])	KDM4E demethylation activity, M (KDM4E; [1])	KDM6B demethylation activity, M (KDM6B)	KDM4D demethylation activity, M (KDM4D; [2])	KDM3B demethylation activity, D (KDM3B)	KDM3C demethylation activity, D (KDM3C)	KDM5D demethylation activity, D (KDM5D)	KDM3A demethylation activity, D (KDM3A)	KDM4A demethylation activity, D (KDM4A; [1])	KDM4E demethylation activity, D (KDM4E; [1])	KDM6B demethylation activity, D (KDM6B)	KDM4D demethylation activity, D (KDM4D; [2])	substrate conversion (demethylation) by KDM4A (KDM4A)	substrate conversion (demethylation) by KDM4E (KDM4E)	also measured
KKKAKKmeAGATAGKRK [Peptide H1.3K25me, 15-mer linker histone H1.3 residues 20-34 peptide, mono-methylated K25]	● [red]	● [red]	● [red]	● [red]	● [red]	● [red]	● [red]	● [red]											
KKKAK[Lys(Me2)]AGATAGKRK [Peptide H1.3K25me2, 15-mer linker histone H1.3 residues 20-34 peptide, di-methylated K25]									● [red]	● [red]	● [red]	● [red]	● [red]	● [red]	● [red]	● [red]			
KKKAK[Lys(Me3)]AGATAGKRK [Peptide H1.3K25me3, 15-mer linker histone H1.3 residues 20-34 peptide, tri-methylated K25]																	< 10%	< 10%	KDM3B demethylation activity, T (KDM3B; [3]): ● [red]; KDM3C demethylation activity, T (KDM3C; [3]): ● [red]; KDM5D demethylation activity, T (KDM5D; [3]): ● [red]; KDM3A demethylation activity, T (KDM3A; [3]): ● [red]; KDM4A demethylation activity, T (KDM4A; [4]): ● [black] (black dots indicate low-level demethylation (<10% conversion)); KDM4E demethylation activity, T (KDM4E; [4]): ● [black] (black dots indicate low-level demethylation (<10% conversion)); KDM6B demethylation activity, T (KDM6B; [3]): ● [red]; KDM4D demethylation activity, in words (KDM4D; [5]): No activity was observed; di-methylated product formed by KDM4D (KDM4D; [5]): < 5%; KDM4D demethylation activity, T (KDM4D; 2 μM KDM, 10 μM H1/H3 peptide, 10 μM FAS, 100 μM LAA, 20 μM 2OG, 50 mM HEPES pH 7.5, 2 h, T (tri-) initial methylation state): ● [red]
KKKAR[Lys(Me2)]SAGAAKRKA [Peptide H1.4K25me2, 15-mer linker histone H1.4 residues 20-34 peptide, di-methylated K25]									● [red]	● [red]	● [red]	● [red]	● [black] (black dots indicate low-level demethylation (<10% conversion))	● [red]	● [red]	● [yellow] (yellow dots indicate moderate demethylation (<50% conversion))	~20%	~50%	substrate conversion (demethylation) by KDM4D (KDM4D; 2 μM KDM4D, 10 μM peptide, 10 μM FAS, 100 μM LAA, 20 μM 2OG, HEPES pH 7.5, 2 h): > 40%
KKKATKKmeAAGAGAAK [Peptide H1.5K26me, 15-mer linker histone H1.5 residues 20-34 peptide, mono-methylated K26]	● [red]	● [red]	● [red]	● [red]	● [red]	● [red]	● [red]	● [red]											
KKKATK[Lys(Me2)]AAGAGAAK [Peptide H1.5K26me2, 15-mer linker histone H1.5 residues 20-34 peptide, di-methylated K26]									● [red]	● [red]	● [red]	● [red]	● [red]	● [green] (green dots indicate good demethylation (>50% conversion))	● [red]	● [black] (black dots indicate low-level demethylation (<10% conversion))		> 40%	
